In assay [1] the target is T1, JAK3: Recombinant human kinase domain (Homo sapiens, UniProt P52333).
T1 construct: JAK3: Recombinant human kinase domain from Millipore (Cat #14-629) or prepared; purchased Millipore 14-629
Kind of assay: Determination of IC50 of Janus Kinase (JAK) inhibition, radioactive end-point 33P-ATP assay, JAK3. The conditions noted are these: ATP 1.5 uM, peptide 50 uM, 20 minutes, read-out: JAK3-INHIB-DR/v1~NO ADDITIVE~Enzyme_Conc = 100. Format: biochemical.

Assay [2] concerns the target T2, recombinant human SYK360-635 (Homo sapiens, UniProt P43405).
T2 construct: made in house
The assay is described as follows: Determination of IC50 of Spleen Tyrosine Kinase (SYK) inhibition, 33P ATP filtration assay. The assay is classed as biochemical. The conditions noted are these: SYK aa 360-635 0.5 nM; ATP 20 μM, peptide 5 μM, 0.1% BSA; read-out: SYK_ENZYME_FILTRATION/v1, BSA.

The results in this text go back to patent publication US8658646B2, “Pyrrolopyrazine kinase inhibitors” (Hoffmann-LaRoche Inc., priority 2011, dated 2014).

Each structure is given as a SMILES string. pIC50: −log10 of the molar value. Values joined by “and” are separate entries in the source; they are usually repeats but may differ in a detail not shown here. Equal values may be shown once.

T1 sequence (P52333 822-1111 limits assumed): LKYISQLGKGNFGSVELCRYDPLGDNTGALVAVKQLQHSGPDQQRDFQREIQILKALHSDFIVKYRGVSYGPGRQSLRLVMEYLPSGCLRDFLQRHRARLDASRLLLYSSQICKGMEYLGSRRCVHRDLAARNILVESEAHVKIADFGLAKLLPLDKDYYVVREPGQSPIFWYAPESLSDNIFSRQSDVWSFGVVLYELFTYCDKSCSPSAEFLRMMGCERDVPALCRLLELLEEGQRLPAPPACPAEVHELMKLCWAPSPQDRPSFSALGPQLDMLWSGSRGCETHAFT

As to `CC(C)NC(=O)c1c[nH]c2ncc(-c3nn(CCN4CCOCC4)c4cc(Cl)cc(F)c34)nc12` [Example I-129, 2-[6-Chloro-4-fluoro-1-(2-morpholin-4-yl-ethyl)-1H-indazol-3-yl]-5H-pyrrolo[2,3-b]pyrazine-7-carboxylic acid isopropylamide], the pIC50 is 8.36 in assay [1] and 7.31 in assay [2].

In the case of `CC(C)NC(=O)c1c[nH]c2ncc(-c3nn(CCCN(C)C)c4cc(Cl)cc(F)c34)nc12` [Example I-131, 2-[6-Chloro-1-(3-dimethylamino-propyl)-4-fluoro-1H-indazol-3-yl]-5H-pyrrolo[2,3-b]pyrazine-7-carboxylic acid isopropylamide], the pIC50 in assay [1] was 8.15; in assay [2] it was 7.40.

With `CC(C)NC(=O)c1c[nH]c2ncc(-c3nn(CCCN4CCOCC4)c4cc(Cl)cc(F)c34)nc12` [Example I-132, 2-[6-Chloro-4-fluoro-1-(3-morpholin-4-yl-propyl)-1H-indazol-3-yl]-5H-pyrrolo[2,3-b]pyrazine-7-carboxylic acid isopropylamide], the pIC50 in assay [1] was 8.33; in assay [2], 7.63.

Turning to `C[C@H](Cn1ccnc1)NC(=O)c1c[nH]c2ncc(-c3nn(C)c4cc(Cl)ccc34)nc12` [Example I-134, 2-(6-Chloro-1-methyl-1H-indazol-3-yl)-5H-pyrrolo[2,3-b]pyrazine-7-carboxylic acid ((R)-2-imidazol-1-yl-1-methyl-ethyl)-amide], the pIC50 is 7.17 in assay [1] and 6.32 in assay [2].

Turning to `Cn1nc(-c2cnc3[nH]cc(C(=O)N[C@H]4CCCOC4)c3n2)c2ccc(Cl)cc21` [Example I-138, 2-(6-Chloro-1-methyl-1H-indazol-3-yl)-5H-pyrrolo[2,3-b]pyrazine-7-carboxylic acid (S)-tetrahydro-pyran-3-ylamide], the pIC50 in assay [1] was 7.50; in assay [2] it was 7.66.

As to `Cn1nc(-c2cnc3[nH]cc(C(=O)N[C@@H]4CCCOC4)c3n2)c2ccc(Cl)cc21` [Example I-139, 2-(6-Chloro-1-methyl-1H-indazol-3-yl)-5H-pyrrolo[2,3-b]pyrazine-7-carboxylic acid (R)-tetrahydro-pyran-3-ylamide], the pIC50 in assay [1] was 8.34; in assay [2], 8.07.

In the case of `C[C@H](NC(=O)c1c[nH]c2ncc(-c3nn(C)c4cc(Cl)ccc34)nc12)C1CC1` [Example I-140, 2-(6-Chloro-1-methyl-1H-indazol-3-yl)-5H-pyrrolo[2,3-b]pyrazine-7-carboxylic acid ((S)-1-cyclopropyl-ethyl)-amide], the pIC50 in assay [1] is 8.95; in assay [2], 8.04.

`C[C@@H](CC#N)NC(=O)c1c[nH]c2ncc(-c3nn(C)c4cc(Cl)ccc34)nc12` [Example I-142, 2-(6-Chloro-1-methyl-1H-indazol-3-yl)-5H-pyrrolo[2,3-b]pyrazine-7-carboxylic acid ((S)-2-cyano-1-methyl-ethyl)-amide]: the pIC50 in assay [1] was 8.09; in assay [2], 7.69.

`Cn1nc(-c2cnc3[nH]cc(C(=O)NCCN)c3n2)c2ccc(Cl)cc21` [Example I-143, 2-(6-Chloro-1-methyl-1H-indazol-3-yl)-5H-pyrrolo[2,3-b]pyrazine-7-carboxylic acid (2-amino-ethyl)-amide]: the pIC50 is < 6.00 and 6.27 in assay [1]; 7.26 in assay [2].

As to `Cn1nc(-c2cnc3[nH]cc(C(=O)N[C@H]4CC[C@H](O)CC4)c3n2)c2ccc(Cl)cc21` [Example I-144, 2-(6-Chloro-1-methyl-1H-indazol-3-yl)-5H-pyrrolo[2,3-b]pyrazine-7-carboxylic acid (trans-4-hydroxy-cyclohexyl)-amide], the values for the pIC50 in assay [1] and in assay [2] were 7.88 and 7.43, respectively.

Turning to `Cn1nc(-c2cnc3[nH]cc(C(=O)N[C@H]4CC[C@@H](N)CC4)c3n2)c2ccc(Cl)cc21` [Example I-145, 2-(6-Chloro-1-methyl-1H-indazol-3-yl)-5H-pyrrolo[2,3-b]pyrazine-7-carboxylic acid (cis-4-amino-cyclohexyl)-amide], the pIC50 in assay [1] is 7.76; in assay [2], 8.72.

In the case of `Cn1nc(-c2cnc3[nH]cc(C(=O)N[C@H]4CC[C@H](N)CC4)c3n2)c2ccc(Cl)cc21` [Example I-146, 2-(6-Chloro-1-methyl-1H-indazol-3-yl)-5H-pyrrolo[2,3-b]pyrazine-7-carboxylic acid (trans-4-amino-cyclohexyl)-amide], the pIC50 was 7.74 in assay [1] and 8.06 in assay [2].

`CC(Cc1ccccc1)NC(=O)c1c[nH]c2ncc(-c3nn(C)c4cc(Cl)ccc34)nc12` (stereo not shown) [Example I-150, 2-(6-Chloro-1-methyl-1H-indazol-3-yl)-5H-pyrrolo[2,3-b]pyrazine-7-carboxylic acid (1-methyl-2-phenyl-ethyl)-amide]: the pIC50 in assay [1] was 7.65; in assay [2], 5.81.

For the compound `Cn1nc(-c2cnc3[nH]cc(C(=O)N[C@@H]4CC[C@H](O)C4)c3n2)c2ccc(Cl)cc21` [Example I-151, 2-(6-Chloro-1-methyl-1H-indazol-3-yl)-5H-pyrrolo[2,3-b]pyrazine-7-carboxylic acid ((1R,3S)-3-hydroxy-cyclopentyl)-amide], the pIC50 in assay [1] is 8.46; in assay [2] it was 7.64.

As for `CC(NC(=O)c1c[nH]c2ncc(-c3nn(C)c4cc(Cl)ccc34)nc12)C1CCCO1` (stereo not shown) [Example I-154, 2-(6-Chloro-1-methyl-1H-indazol-3-yl)-5H-pyrrolo[2,3-b]pyrazine-7-carboxylic acid [1-(tetrahydro-furan-2-yl)-ethyl]-amide], the results for the pIC50 in assay [1] and in assay [2] were 8.31 and 7.33, respectively.

For `Cn1nc(-c2cnc3[nH]cc(C(=O)N[C@@H]4CCc5ccccc54)c3n2)c2ccc(Cl)cc21` [Example I-157, 2-(6-Chloro-1-methyl-1H-indazol-3-yl)-5H-pyrrolo[2,3-b]pyrazine-7-carboxylic acid (R)-indan-1-ylamide], the results for the pIC50 in assay [1] and in assay [2] were 7.15 and 6.38, respectively.

For `Cn1nc(-c2cnc3[nH]cc(C(=O)N[C@H]4CC[C@@H](O)CC4)c3n2)c2ccc(Cl)cc21` [Example I-158, 2-(6-Chloro-1-methyl-1H-indazol-3-yl)-5H-pyrrolo[2,3-b]pyrazine-7-carboxylic acid (cis-4-hydroxy-cyclohexyl)-amide], the pIC50 in assay [1] is 8.69; in assay [2] it was 8.01.

In the case of `COC[C@@H](C)NC(=O)c1c[nH]c2ncc(-c3nn(C)c4cc(Cl)ccc34)nc12` [Example I-159, 2-(6-Chloro-1-methyl-1H-indazol-3-yl)-5H-pyrrolo[2,3-b]pyrazine-7-carboxylic acid ((R)-2-methoxy-1-methyl-ethyl)-amide], the pIC50 was 8.23 in assay [1] and 7.18 in assay [2].

For the compound `CC(NC(=O)c1c[nH]c2ncc(-c3nn(C)c4cc(Cl)ccc34)nc12)C(F)(F)F` (stereo not shown) [Example I-160, 2-(6-Chloro-1-methyl-1H-indazol-3-yl)-5H-pyrrolo[2,3-b]pyrazine-7-carboxylic acid (2,2,2-trifluoro-1-methyl-ethyl)-amide], the values for the pIC50 in assay [1] and in assay [2] were 7.71 and 7.43, respectively.

For the compound `CC[C@H](CO)NC(=O)c1c[nH]c2ncc(-c3nn(C)c4cc(Cl)ccc34)nc12` [Example I-161, 2-(6-Chloro-1-methyl-1H-indazol-3-yl)-5H-pyrrolo[2,3-b]pyrazine-7-carboxylic acid ((R)-1-hydroxymethyl-propyl)-amide], the figures for the pIC50 in assay [1] and in assay [2] were 7.79 and 7.76, respectively.
